We go through 87 compounds from a melting point compilation (Tetko et al.; mined from patent text by program, amines drawn as free bases though some values may be those of a salt).

Structures are written as SMILES.

`CCCCC1=NC2(CCCC2)C(=O)N1Cc1ccc(-c2ccccc2S(=O)(=O)Nc2onc(C)c2C)c(CN2CCCC2=O)c1` yielded a melting point of 95 to 100 °C.
`COC(=O)c1c(C)cc(O)c(Cl)c1O` gave a melting point of 122 to 125 °C.
For `CC(O)c1cc(C(C)O)cc(S(N)(=O)=O)c1` (configuration not stated), the melting point was 175 to 177 °C.
Next, `COc1ccc(Cn2c(=O)cc(C(F)(F)F)n(C)c2=O)cc1`: 79 to 80 °C; `N#CN=C(Nc1ccncc1)NC1CCCCCCC1`: 198 to 199 °C.
Consider `COCc1nnc(-c2cccnc2)n1-c1c(C)c(Cl)cc2nc(OC)c(OC)nc12`, for which the melting point was 166 to 168 °C.
`CCCCCS(=O)(=O)NC(=O)C(Cc1ccc(OCCOC)cc1Oc1ncc(C(F)(F)F)cc1Cl)OC` (configuration not stated) returned a melting point of 76 to 78 °C.
For the compound `O=C1CC(=O)N(c2ccccc2)c2ccccc2N1NCCC1C2CC3CC(C2)CC1C3` (configuration not stated), the melting point was in the range of 196 to 197 °C.
Next, `Cn1nnnc1C=C(c1ccc(F)cc1)c1ccc(F)cc1`: 169 to 171 °C; `O=C(Cc1ccc(F)cc1)N1CCN(Cc2ccccc2)CC1`: 99 to 101 °C; `COc1ccc2ccc3nc(C(=O)Nc4nnn[nH]4)cn3c2c1`: 298 to 301 °C.
On to `COC(=O)Nc1nc(OC)cc(OC)n1`, for which the melting point lay within 81 to 83 °C.
As for `N#CCNC(=O)COc1ccc(Cl)cc1Cl`, the melting point was in the range of 107 to 108 °C.
The result for `COc1cc2c(=O)n(CCO)c3c4cc5c(cc4ncc3c2cc1OC)OCO5` reads 285 to 286 °C; that for `CCCN(C(=O)C=C(C)C)c1cccc(Br)c1`, 50 to 51 °C; that for `CC(=O)OC1CCCN(C(=O)c2ccc(NC(=O)c3ccccc3C)cc2)c2ccccc21` (configuration not stated), 193 to 194 °C.
The result for `O=C1CC(CO)C(c2c(Cl)cccc2Cl)N1Cc1ccccc1` (configuration not stated) reads 122 to 126 °C; that for `COc1ccc2c(c1)c(Cc1nc(-c3ccc(F)cc3F)cs1)c(C)n2C(=O)c1ccc(Cl)cc1`, 134 to 136 °C.
As for `CC(=O)Oc1ccc(C=Cc2cc(OC(C)=O)c(OC(C)=O)c(OC(C)=O)c2)cc1`, the melting point is 162 to 163 °C.
In turn, `CSCC[C@@H](NC(=O)OC(C)(C)C)C(=O)NCC(=O)O` displayed a melting point of 124 to 126 °C.
Next, `CC(=O)c1cc2c(s1)C(N1CCCC1=O)C(O)C(C)(C)O2` (configuration not stated): 102 to 106 °C; `O=C1C=C(NC(=O)C(=O)c2cn(Cc3cccc(C(F)(F)F)c3)c3cc([N+](=O)[O-])ccc23)CO1`: 279 to 281 °C.
The compound `CN(Cc1ccc([N+](=O)[O-])cc1)Cc1nc(-c2cc(C(C)(C)C)c(O)c(C(C)(C)C)c2)cs1` yielded a melting point of 111 to 112 °C.
The compound `COc1cc(F)cc(-c2ccc3c(c2)C(C)(C)OC(=O)N3)c1` gave a melting point of 181 to 182 °C.
Turning to `Cc1cc(-c2cc(COS(C)(=O)=O)c(=O)n(CC=Cc3ccccc3)n2)ccc1F`, the melting point was 78.4 to 80.5 °C.
On to `CC(C)(C)OC(=O)N1C[C@@H](Br)C[C@@H]1C(=O)OCc1ccccc1`, for which the melting point fell in the range of 87 to 88 °C.
As for `O=C1CCC(CC(O)C(=O)OCc2ccccc2)N1` (configuration not stated), the melting point is 95 to 96 °C.
`Cc1c(OCc2ccccc2)ccc2c(=O)cc(N3CCN(c4ccccn4)CC3)oc12` displayed a melting point of 148 to 149 °C.
Take `CC(C)(C)OC(=O)CC(NC(=O)C1CCCN2C(=O)CCC(NC(=O)c3ccccc3)C(=O)N12)C(=O)COC(=O)c1c(Cl)cccc1Cl` (configuration not stated): the melting point is 102 to 107 °C.
`CCCCNC(=O)Nc1nc2cc(CN3CCN(C(c4ccccc4)c4ccccc4)CC3)ccc2n1C` gave a melting point of 196 °C.
The compound `COC(=O)c1ccccc1NC(=O)OCC1CCN(CCNS(C)(=O)=O)CC1` showed a melting point of 106 to 108 °C.
Take `N#CCCCOc1ccc(-c2nnc(CSCCOc3ccccc3)o2)cc1`: the melting point was 67 to 68 °C.
Next, `CC1(C)OC2C=CC(=O)C2O1` (single isomer, unassigned; (+)): 68 to 69 °C.
In turn, `CCP(=O)(O)CC(=O)CN` yielded a melting point of 189 to 192 °C.
Next, `CC(C)(C)c1ccc(C[C@@H](C(=O)O)[C@@H](O)c2ccc(F)cc2)cc1` (racemic): 102 to 104 °C.
The result for `CC(C)(C)OC(=O)C(=[N+]=[N-])C(=O)CO` reads 35 °C; that for `O=S(=O)(CCCCl)NC1CC1`, 48 to 49.5 °C.
Take `CCOCN1C(C)=C(C(=O)OCC)C(c2cccc([N+](=O)[O-])c2)C(C(=O)OCC)=C1C`: the melting point came to 125 °C.
Next, `Nc1nc2c(c(=O)[nH]1)n(Cc1ccccc1)c(=O)n2C1OC(CO)C(O)C1O` (configuration not stated): 175 °C.
The compound `CCc1nc2ccc(N=C=S)cc2s1` came in with a melting point of 69 to 73 °C.
`Cc1cccc(-c2sc(N)nc2-c2ccnc(-c3ccc(CN4CCCC4)cc3)c2)n1` showed a melting point of 200 °C.
For `CN(C)c1ccc2c(c1)Sc1cc(N(C)C)ccc1N2C(=O)c1cc(C(C)(C)C)c(O)c(C(C)(C)C)c1`, the melting point was in the range of 212 to 216 °C.
In turn, `O=C(Cc1ccncc1)[N+]1([O-])CCC(=C2c3ccc(Cl)cc3CCc3cccnc32)CC1` (configuration not stated) showed a melting point of 128 to 130 °C.
Next, `CC(C)OC(=O)C(C)(C)c1cn2nc(Cl)ccc2n1`: 100 to 101 °C; `CCOC(=O)C(CCCCCN1C(=O)c2ccccc2C1=O)(NC(C)=O)C(=O)OCC`: 70 to 72 °C; `Fc1cccc(F)c1-c1nc(/C=C/c2ccc(C3CCCCC3)cc2)no1`: 86 to 87 °C.
For `CCCCc1oc2ccc(CO)cc2c1C(=O)c1ccc(O)cc1`, the melting point is 180 to 182 °C.
Turning to `C[C@H]1C[C@@]2(N)CN(c3c(F)cc4c(=O)c(C(=O)O)cn5c4c3OC[C@@H]5C)C[C@@H]12`, the melting point fell in the range of 122 to 124 °C.
The result for `Cc1cc(C(O)=S)cc(N)c1C(=O)c1ccccc1` reads 158 to 159 °C; that for `CCCNc1c2ccccc2nc2c1c(C)nn2-c1ccccn1`, 121 to 122 °C.
Next, `O=C(O)CC1(CCl)OCCO1`: 64 to 65 °C.
The result for `COc1cc(-c2cnc3[nH]cc(C(=O)O)c3n2)cc(OC)c1OC` reads 238 °C; that for `O=C(NC(Cc1ccccc1)C1CC(Cc2ccccc2)=NO1)c1ccccc1` (configuration not stated), 141 to 142 °C.
Consider `CC(NC(=S)Nc1ccc(NCCN)nc1)C(C)(C)C` (configuration not stated), for which the melting point lay in the range of 138 to 140 °C.
The result for `Cc1oc(-c2ccccc2)nc1CCOc1ccc(CC(C)(C)C(=O)NS(C)(=O)=O)cc1` reads 112 to 113 °C.
Next, `CC(C)(C)OC(=O)N(CCCc1ccc(Cl)cc1)C1CCCC1N` (configuration not stated): 95.3 to 111 °C; `COc1cccc2c(=O)n3nc(C(=O)n4ccnc4)cc3[nH]c12`: 295 to 300 °C.
As to `Cc1ccc(NC(=O)OCc2ccco2)cc1NC(=O)OCc1ccco1`, the melting point is 154 to 156 °C.
As to `NS(=O)(=O)NCCc1ccccc1`, the melting point was in the range of 61.8 to 62 °C.
Next, `CCOC(=O)CCCCSc1nc(-c2ccccc2)c(-c2ccccc2)[nH]1`: 87 to 89 °C; `C=CCNCCC(OC)(c1ccccc1)c1ccccc1`: 40 to 50 °C.
The result for `Cc1oc(-c2ccccc2)nc1CCOc1ccc(/C=C/CO)cc1` reads 127 to 128 °C; that for `O=C1CCC(N2C(=O)c3ccc(CNC(=O)c4ccco4)cc3C2=O)C(=O)N1` (configuration not stated), 180 to 182 °C; that for `O=c1c2c[nH]c3ccccc3c-2nn1-c1nccs1`, more than 350 °C.
The result for `CCOC(=O)c1c(C)nn(-c2ccc(F)cc2)c1N` reads 129 to 131 °C; that for `O=C(c1ccc2nc[nH]c(=O)c2c1)c1ncc2ccccn12`, 289 °C.
In turn, `CN(C(N)=O)[C@@H]1c2cc(C#N)ccc2OC(C)(C)[C@H]1O` (relative stereo) returned a melting point of 135 to 137 °C.
Next, `Cc1cc(-n2cncn2)c2c(Cl)ccc(C)c2n1`: 117 to 118 °C.
In the case of `CCOC(=O)c1ncoc1-c1cc(Cl)nc(Cl)c1`, the melting point lay within 108 to 109 °C.
`NN(C(=O)c1ccc(Cl)c(S(N)(=O)=O)c1)c1ccc(C(=O)c2ccccc2)cc1[N+](=O)[O-]` gave a melting point of 148 °C.
In the case of `CCCSC1(C(F)(F)F)CN(C2CC2)C(=O)Nc2ccc(Cl)cc21` (configuration not stated), the melting point was in the range of 150 to 151 °C.
Compound `CC(=O)OCc1[nH]c(C(=O)OCc2ccccc2)c(C)c1C(C)=O` gave a melting point of 97 to 100 °C.
As for `COc1ccc(-c2nn(C3CCCC3)c3c(F)cccc23)cc1`, the melting point is 70 to 71 °C.
`CCOC(=O)c1ccc(NC(=O)C=C(c2ccccc2)c2ccc(Cl)cc2)cc1` displayed a melting point of 173 to 175 °C.
Compound `O=C1CCCC(CN2CCN(c3ccccn3)CC2)C1` (configuration not stated) gave a melting point of 86 to 90 °C.
The result for `COc1ccc(C=Cc2oc3ccc(Br)cc3c2C(C)=O)cc1` reads 163 to 165 °C.
Compound `Nc1nc2c(s1)CCN(CC=Cc1cccc(F)c1)CC2` showed a melting point of 128 to 132 °C.
Consider `Clc1nc(Br)cnc1N1CCNCC1`, for which the melting point lay within 114 to 115 °C.
`COC(=O)c1ccccc1-c1ccc(CN2C(=O)c3ccccc3C2=O)cc1` registered a melting point of 148 to 150 °C.
Next, `CCCCNc1cc(Cl)c2c(c1)C(c1ccccc1F)=NC(C)(C)C(=O)N2C`: 113 to 115 °C; `CC(C)n1nc(-c2sc(NC(=O)c3ccc4ccccc4c3)nc2-c2ccccc2)ccc1=O`: 227 to 229 °C.
Next, `CC(C)(C)CC(=O)N[C@H]1CC[C@H](CCN2CCC(c3cccc4c3CCO4)CC2)CC1`: 193 °C; `CC(C)CCCC(C)NC(=O)Oc1ccc(Oc2ccccc2)cc1F` (configuration not stated): 37 to 41 °C; `O=C(c1ccccc1)c1cc(Cc2ccccc2)c(O)c2ccccc12`: 152 to 155 °C.
For `COc1ccc(N2CCN(c3c(C)c(C)c4c(c3C)C(CN3CCCCC3)C(C)(C)O4)CC2)cc1` (configuration not stated), the melting point was 144 to 145 °C.
Next, `Nc1nc(C(F)(F)C(F)(F)F)nn1-c1c(Cl)cc(C(F)(F)F)cc1Cl`: 181 to 183 °C; `COc1ccsc1S(=O)(=O)Nc1nc2c(OC)cnc(OC)n2n1`: 227 to 228 °C.

For orientation: melting point means the temperature of the solid-liquid transition.
